Assay results taken from patent US20190307811A1, “METHOD FOR TREATING AIRWAYS DISEASE” (HUDSON INSTITUTE OF MEDICAL RESEARCH, priority 2016, published 2019).

Key:
[1] = test system: bleomycin (BLM)-induced model of pulmonary fibrosis; assay: Interstitial fibrosis, bleomycin-induced pulmonary fibrosis model; format: in vivo; conditions: BLM-injured mice, treatment days 22-28
Protocol: (§1) The following is relevant to Example 10. A bleomycin (BLM)-induced model of pulmonary fibrosis was established in mice (n=49). Mice were intranasally (IN) administered with 20 μg of bleomycin sulphate (Hospira, Melbourne, Victoria, Australia) in 50 μl of saline (equivalent to 400 μg/ml; 25 μl per nare) on days 0 and 7. For control mice (n=7), however, instead of BLM, they were given IN administration (50 μL per mouse) of 0.9% w/v saline on days 0 and 7. All mice were then left untreated for a further two weeks (until day 21).
(§2) On day 22 (1 day following completion of induction of the BLM-induced pulmonary fibrosis model), mice were lightly anaesthetized with isoflurane (Baxter Health Care, NSW, Australia) and held in a semi-supine position while IN administration of the appropriate treatment took place. The following treatments were administered daily or once-weekly to mice, from days 22-28.
(§3) BLM alone (injury control group): a-sub-group of mice (n=7) received 50 μL of phosphate buffered saline (PBS; the vehicle for Pirfenidone, AECs and AEC-derived exosomes; 25 μL per nare) daily, using an automatic pipette from days 22-28,
(§4) Pirfenidone: a separate sub-group of mice (n=7) received 1 mg of Pirfenidone (Tocris Bioscience, Noble Park, Victoria, Australia) per day (equivalent to 50 mg/kg/day) by twice daily oral gavage, from days 22-28. […]

[2] = test system: bleomycin (BLM)-induced model of pulmonary fibrosis; assay: Lung inflammation score, bleomycin-induced pulmonary fibrosis model; format: in vivo; conditions: BLM-injured mice, treatment days 22-28
Protocol: as §1, §2, §3, §4

[3] = test system: bleomycin (BLM)-induced model of pulmonary fibrosis; assay: Subepithelial ECM/collagen deposition, bleomycin-induced pulmonary fibrosis model; format: in vivo; conditions: BLM-injured mice, treatment days 22-28
Protocol: as §1, §2, §3, §4

goblet cells = assay: Goblet cell metaplasia (ABPAS staining), chronic OVA-induced AAD model; format: in vivo, Balb/c mice; conditions: OVA-treated mice; OVA alone 4.83±0.20, saline 1.62±0.32
Protocol: (§5) To assess the individual vs combined effects of MSCs, AECs and RLX (serelaxin) in chronic AAD, a chronic model of ovalbumin (OVA)-induced AAD was established in mice (n=36). Mice were sensitized with two i.p. injections of 10 μg of Grade V chicken egg OVA (Sigma-Aldrich, Mo., USA) and 400 μg of aluminium potassium sulphate adjuvant (alum; AJAX Chemicals, NSW, Australia) in 500 μl of 0.9% w/v normal saline solution (Baxter Health Care, NSW, Australia) on day 0 and day 14. They were then challenged by whole body inhalation exposure (nebulization) to aerosolized OVA (2.5% w/v in 0.9% w/v normal saline) for thirty minutes, three times a week, between days 21 and 63, using an ultrasonic nebulizer (Omron NE-U07; Omron, Kyoto, Japan). Control mice (n=6) were given i.p injections of 500 μl 0.9% w/v saline and nebulized with 0.9% w/v saline instead of OVA.
(§6) On day 64 (1 day following completion of induction of the chronic AAD model), mice were lightly anaesthetized with isoflurane (Baxter Health Care, NSW, Australia) and held in a semisupine position while intranasal administration of the appropriate treatment took place. […]

[4] = test system: chronic model of ovalbumin (OVA)-induced AAD; assay: Epithelial thickness (Masson's trichrome), chronic OVA-induced AAD model; format: in vivo, Balb/c mice; conditions: relative to BM length; OVA-treated mice; OVA alone 21.20±0.60, saline 16.89±0.76
Protocol: as §5, §6

[5] = test system: α-SMA-stained myofibroblasts; assay: Subepithelial myofibroblast accumulation (α-SMA IHC), chronic OVA-induced AAD model; format: in vivo, Balb/c mice; conditions: OVA-treated mice; OVA alone 1.72±0.07, saline 0.44±0.13
Protocol: (§7) To assess the individual vs combined effects of MSCs, AECs and RLX (serelaxin) in chronic AAD, a chronic model of ovalbumin (OVA)-induced AAD was established in mice (n=36). Mice were sensitized with two i.p. injections of 10 μg of Grade V chicken egg OVA (Sigma-Aldrich, Mo., USA) and 400 μg of aluminium potassium sulphate adjuvant (alum; AJAX Chemicals, NSW, Australia) in 500 μl of 0.9% w/v normal saline solution (Baxter Health Care, NSW, Australia) on day 0 and day 14. […]
(§8) IHC was used to detect TGF-β1 (using a polyclonal antibody; sc-146; Santa Cruz Biotechnology, Santa Cruz, Calif., USA; 1:1000 dilution), α-smooth muscle actin (α-SMA; a marker of myofibroblast differentiation; using a monoclonal antibody; M0851; DAKO Antibodies, Glostrup, Denmark; 1:200 dilution) and thymic stromal lymphopoietin (TSLP; a marker for epithelial damage; using a polyclonal antibody; ABT330; EMD Millipore Corp'. Temecula, Calif., USA; 1:1000 dilution). Primary antibody staining was detected using the DAKO EnVision anti-rabbit or anti-mouse kits and 3,3′-Diaminobenzidine (DAB) chromogen, while negative controls, which were exposed to the EnVision kits in the absence of any primary antibody, were also included. […]

[6] = test system: chronic model of ovalbumin (OVA)-induced AAD; assay: Peri-bronchial inflammation score, chronic OVA-induced AAD model; format: in vivo, Balb/c mice; conditions: scale 0 to 4; OVA-treated mice, intranasal treatment days 64-77; OVA alone 1.70±0.60, saline 0.15±0.40
Protocol: Six-to-eight week-old female Balb/c mice were obtained from Monash Animal Services (Monash University, Clayton, Victoria, Australia) and housed under a controlled environment, on a 12 hour light/12 hour dark lighting cycle with free access to water and lab chow (Barastock Stockfeeds, Pakenham, Victoria, Australia). All mice were provided an acclimatization period of 4-5 days before any experimentation.
as §5, with “OVA. […]” for “OVA.”

[7] = test system: chronic model of ovalbumin (OVA)-induced AAD; assay: Hydroxyproline assay of total lung collagen concentration, chronic OVA-induced AAD model; format: in vivo, Balb/c mice; conditions: collagen content/dry weight, OVA alone 3.82±0.10, saline 2.84±0.11
Protocol: as §5, with “OVA. […]” for “OVA.”
The second largest lung lobe from each mouse was processed as previously described (Royce et al. (2009) supra; Royce et al. (2014) supra; Royce et al. (2015) supra) for the measurement of hydroxyproline content, which was determined from a standard curve of purified trans-4-hydroxy-L-proline (Sigma-Aldrich). […]

[8] = test system: thymic stromal lymphopoietin (TSLP); assay: TSLP immunohistochemistry (epithelial damage), chronic OVA-induced AAD model; format: in vivo, Balb/c mice; conditions: OVA-treated mice; OVA alone 4.61±0.53, saline 1.00±0.30
Protocol: as §7, §8

TGF-β1 = assay: Airway epithelial TGF-β1 immunohistochemistry, chronic OVA-induced AAD model; format: in vivo, Balb/c mice; conditions: relative to saline-treated controls expressed as 1; OVA alone 10.65±0.81
Protocol: as §7, §8

[9] = test system: chronic model of ovalbumin (OVA)-induced AAD; assay: Subepithelial collagen deposition (Masson's trichrome), chronic OVA-induced AAD model; format: in vivo, Balb/c mice; conditions: OVA-treated mice; OVA alone 26.26±1.37, saline 8.07±0.58
Protocol: as §5, §6

[10] = test system: chronic model of ovalbumin (OVA)-induced AAD; assay: AHR by invasive plethysmography (methacholine), chronic OVA-induced AAD model; format: in vivo, Balb/c mice; conditions: airway resistance to nebulized methacholine; vs OVA group
Protocol: as §5, with “OVA. […]” for “OVA.”
On day 78 (24 hours after the final intranasal administration of PBS or various treatments detailed), mice were anesthetized with an i.p injection of ketamine 10 mg/kg and xylazine 2 mg/kg BW (in 0.9% w/v saline). […] The airway resistance of each mouse was then measured (reflecting changes in AHR) in response to increasing doses of nebulized acetyl-β-methylcholine chloride (methacholine; Sigma Aldrich, Mo., USA), delivered intratracheally, from 3.125-50 mg/ml over 5 doses, to elicit bronchoconstriction. […]

Compound: Cc1ccc(=O)n(-c2ccccc2)c1 [pirfenidone, Pirfenidone]
- bleomycin-induced increase in interstitial fibrosis [1]: normalized
- bleomycin-induced lung inflammation (inflammation score) [2]: only partially reduce
- bleomycin-induced increase in subepithelial ECM/collagen deposition [3]: no effect

Compound: Serelaxin [RLX]
- goblet cell count (goblet cells): 5.08±0.25 goblet cells/100 μm BM length
- epithelial thickness [4]: 18.19±0.74 μm^2
- number of α-SMA-stained myofibroblasts in the subepithelial layer [5]: 1.08±0.10 per 100 μm BM length
- peri-bronchial inflammation score [6]: 1.55±0.83
- total lung collagen concentration [7]: 3.08±0.23%
- number of TSLP-positive cells within the airway epithelium [8]: 3.14±0.34 per 100 μm of BM length
- epithelial TGF-β1 expression (TGF-β1): 5.85±1.42
- subepithelial collagen (relative to basement membrane length) [9]: 18.27±2.26 μm
- decrease of AHR [10]: ~50%
